Here are results for 13 molecules from patent US5385842A, “Anthraquinones as inhibitors of sulfide production from sulfate-reducing bacteria” (E. I. Du Pont de Nemours and Company, priority 1993, dated 1995).

In experiment [1] the test system is sulfate-reducing bacteria. The note with it: background art; cited from earlier work.
The subject of experiment [2] is Desulfovibrio desulfuricans G100A. Description: microbe, parasite or virus in culture. The note with it: for inhibition at 10 ppm / inhibition at 30 ppm: Desulfovibrio desulfuricans, G100A, read-out: % Inhib. (inhibition of sulfide production). Format: cell-based.
The subject of another experiment is Desulfovibrio gigas. Description: Sulfide production by resting cells of D. gigas. The experiment is classed as cell-based. The note with it: for activity at 0.1 ppm / activity at 0.5 ppm / activity at 2 ppm / activity at 5 ppm: Desulfovibrio, 3 hours at 31° C.; for inhibition of sulfide production (in words): resting cells. The procedure: Experiments in this example were carried out using resting cells of Desulfovibrio gigas rather than growing cells as was the case for the autoanalyzer system employing the Desulfovibrio desulfuricans G100A strain. […] Thus the experiment examined a different organism, different test system, and a different physiological state for the phenomenon of anthraquinone inhibition of sulfide production by Desulfovibrio sp. Active compounds, as determined by the autoanalyzer, were evaluated in comparison with four additional compounds not evaluated in the autoanalyzer.
500 ml cultures of Desulfovibrio gigas were grown on standard BTZ-3 medium as previously described in Example 1 with 30 mM sodium lactate, 30 mM sodium sulfate and 30 mM sodium fumarate. The culture was harvested after 24 h of growth at 31° C. by centrifugation at 8000 rpm in a GSA Sorvall rotor for 20 minutes. The cell pellet was resuspended in 30 ml of incubation assay mixture of the following composition: 50 mM HEPES buffer pH 7 buffer, 2.5 mM sodium lactate, 2.5 mM sodium sulfate. This suspension was centrifuged again at 10,000 rpm in a Sorvall SS-34 rotor for 5 minutes. The resulting cell pellet was resuspended in 5 ml of incubation assay buffer. Cell densities were generally near 10e10 cells/mi.
The samples were assayed for production in the presence of anthraquinones. 200 ul of the cell suspension was added to 1.2 ml of incubation assay mixture in a 5 ml capacity test tube. The tube was gassed with hydrogen gas for 20 minutes then the anthraquinones were added as ethanolic solutions, the tubes were then gassed with hydrogen again for 5 minutes. The reaction mixtures were then incubated for 3 hours at 31° C. The reactions were stopped by the addition of 200 ul of 1N sodium hydroxide. After 20 minutes the alkaline mixtures were centrifuged in a table top microfuge for 4 minutes at 14,000 rpm to remove cells and cell debris. The supernatant was then assayed for sulfide using the ferric chloride-DPD reagent system as described by Siegel et al., Anal. Blochem., 11:126-132, 1965, herein incorporated by reference.

A further experiment has as its system anaerobic bacteria. The settings on record: background art; cited from earlier work.
Experiment [3] concerns D. desulfuricans G100A. Description: Growth of D. desulfuricans G100A after addition of inhibitor at 12 h. Format: cell-based. The procedure:
Four 10 ml culture tubes of BTZ-3 medium as defined in Example 1 supplemented with sodium lactate (40 mM) and sodium sulfate (30 mM) and 0.5 ml of reducing agent were inoculated with 100 ul of a fully grown suspension of D. desulfuricans G100A. The culture was allowed to grow and the optical density at 660 nm was monitored until the cells entered into exponential growth (approx. 12-15 h, O.D. 660=0.1-0.2). At this time 100 ul of a 300 ppm solution of 1,8 dihydroxyanthraquinone, 1-chloranthraquinone or 3-chloro-2-anthraquinone carboxylic acid, respectively, was added to one of the tubes. The ethanol:water (80:20) solvent (100 μl ) was added to the fourth tube to serve as an uninhibited control.
#3 ppm inhibitor added at 12 hours

Experiment [4] has as its system D. desulfuricans #ATCC27774. Description: Respiration rate (hydrogen gas uptake) with sulfate as electron acceptor. The note with it: Desulfovibrio desulfuricans, ATCC27774, 4 h, pH 7, read-out: Gas Uptake (as percent of control).
Experiment [5] concerns D. desulfuricans G100A. Description: Effect of dithionite-reduced anthraquinones on growth of D. desulfuricans G100A. The experiment is classed as cell-based. On the procedure: Three anthraquinones, 1,8-dihydroxy-, 1-chloro-, and 3-chloro-2-carboxy- were prepared as 1 ml of 1000 ppm solutions in acetone for the first two compounds or water for the third. These solutions were then treated with 1 mg of the strong reducing agent, sodium dithionite. 50 ul of each solution (for a final culture concentration of 5 ppm) was used immediately to treat growing cultures of D. desulfuricans G100A in BTZ-3 medium as defined in Example 1. The compounds were added to the 10 ml cultures at 15 h of growth.

The next experiment concerns bacteria. The note with it: background art; cited from earlier work.
The subject of experiment [6] is B. aureus, B. subtilis, B. stearothermophilus and S. aureus. The note with it: background art; cited from earlier work.
Where [7] appears, read: 0 h of growth, before addition of 3 ppm inhibitor at 12 h.
[8] abbreviates: 10 h of growth, before addition of 3 ppm inhibitor at 12 h.
Setting [9] is: 12 h of growth, 3 ppm inhibitor added at 12 h.
The mark [10] stands for this setting: 14 h of growth, 3 ppm inhibitor added at 12 h.
Where [11] appears, read: 18 h of growth, 3 ppm inhibitor added at 12 h.
The mark [12] stands for this setting: 20 h of growth, 3 ppm inhibitor added at 12 h.
Where [13] appears, read: 24 h of growth, 3 ppm inhibitor added at 12 h.
Setting [14] is: 29 h of growth, 3 ppm inhibitor added at 12 h.
Setting [15] is: 34 h of growth, 3 ppm inhibitor added at 12 h.
[16] abbreviates: 62 h of growth, 3 ppm inhibitor added at 12 h.
Where [17] appears, read: 92 h of growth, 3 ppm inhibitor added at 12 h.
[18] abbreviates: 0 h, before addition of 5 ppm dithionite-reduced compound at 15 h, control 0.02.
[19] abbreviates: 2 h, before addition of 5 ppm dithionite-reduced compound at 15 h, control 0.02.
The mark [20] stands for this setting: 12 h, before addition of 5 ppm dithionite-reduced compound at 15 h, control 0.08.
The mark [21] stands for this setting: 15 h, time of addition of 5 ppm dithionite-reduced compound, control 0.18.
[22] abbreviates: 17 h, 5 ppm dithionite-reduced compound added at 15 h, control 0.26.
Setting [23] is: 20 h, 5 ppm dithionite-reduced compound added at 15 h, control 0.37.
Where [24] appears, read: 25 h, 5 ppm dithionite-reduced compound added at 15 h, control 0.50.
[25] abbreviates: 30 h, 5 ppm dithionite-reduced compound added at 15 h, control 0.98.
Setting [26] is: 45 h, 5 ppm dithionite-reduced compound added at 15 h, control 1.50.

`[H]/N=C(\N/C(=N/[H])NCCCCCCNC(=N)NC(=N)Nc1ccc(Cl)cc1)Nc1ccc(Cl)cc1` [Chlorhexidine, reference compound]: in experiment [1], the “effective / use concentration against sulfate-reducers” value was 1-10 ppm. Moreover, the “inhibition of sulfide production (in words)” value (shortened to “inhibition … (in words)”) in experiment [2] is reported as “inhibits sulfide production”. In addition, the “% inhibition of sulfide formation” value in experiment [2] (Table III, Example 3) was 88.7%.

`N#Cc1cccc2c1C(=O)c1ccccc1C2=O` [1-cyanoanthraquinone, 1-Cyanoanthraquinone]: in the experiment on Desulfovibrio gigas, the activity at 0.1 ppm came to 118%, the activity at 0.5 ppm amounted to 20%, the activity at 2 ppm worked out at 6.7% and the activity at 5 ppm amounted to 6.8%. Further, the “inhibition … (in words)” value in the experiment with Desulfovibrio gigas is recorded as “inhibitory effect”.

`Cc1ncc([N+](=O)[O-])n1CCO` [metronidazole]: the “effectiveness (in words)” value in the experiment with anaerobic bacteria is on record as “generally effective against anaerobic bacteria”.

Usually inhibition stands for the change of the read-out against control, counted positive when it falls. With `O=C(O)c1cc2c(cc1Cl)C(=O)c1ccccc1C2=O` [2-Chloroanthraquinone-3-carboxylic acid, 3-Chloro-9,10-dihydro-9,10-dioxo-2-anthracenecarboxylic acid], the “optical density reading at 660 nm” value is recorded as “.01” in the experiment on D. desulfuricans G100A [3] (setting [7]); “.10” in the experiment on D. desulfuricans G100A [3] (setting [8]); “.16” with D. desulfuricans G100A [3] (setting [9]); “.21” with D. desulfuricans G100A [3] (setting [10]); “.36” in the experiment with D. desulfuricans G100A [3] (setting [11]); “.38” in the experiment on D. desulfuricans G100A [3] (setting [12]). In addition, the “optical density reading at 660 nm” value with D. desulfuricans G100A [3] (setting [13]) is given as “.36”; with D. desulfuricans G100A [3] (setting [14]) it was “.37”; with D. desulfuricans G100A [3] (setting [15]), “.37”; in the experiment on D. desulfuricans G100A [3] (setting [16]) it was “.34”; in the experiment on D. desulfuricans G100A [3] (setting [17]) it was “.25”. For the same molecule, the inhibition at 10 ppm in experiment [2] was 100%. Besides, the activity at 0.6 ppm in experiment [4] stood at 79%. Further, the activity at 1.5 ppm in experiment [4] stood at 55%. Besides, the activity at 3 ppm in experiment [4] was 41%. Further, the “Optical Density @ 660 nm” value is on record as 0.02 with D. desulfuricans G100A [5] (setting [18]); 0.02 with D. desulfuricans G100A [5] (setting [19]); 0.07 with D. desulfuricans G100A [5] (setting [20]); 0.1 with D. desulfuricans G100A [5] (setting [21]); 0.15 in the experiment on D. desulfuricans G100A [5] (setting [22]); 0.17 in the experiment on D. desulfuricans G100A [5] (setting [23]). Besides, the results for the “Optical Density @ 660 nm” value with D. desulfuricans G100A [5] (setting [24]), with D. desulfuricans G100A [5] (setting [25]) and in the experiment on D. desulfuricans G100A [5] (setting [26]) were 0.17, 0.16 and 0.22, respectively.

In the case of `O=C1c2ccccc2C(=O)c2cc(C(F)(F)F)ccc21` [2-trifluoromethylanthraquinone, 2-Trifluoromethylanthraquinone], in the experiment on Desulfovibrio gigas, the activity at 0.1 ppm was found to be 99%, the activity at 0.5 ppm worked out at 17%, the activity at 2 ppm turned out to be 1.7% and the activity at 5 ppm amounted to 1.5%. Also, the “inhibition … (in words)” value in the experiment with Desulfovibrio gigas is recorded as “inhibitory effect”.

As to `O=C1c2ccccc2C(=O)c2c(F)cccc21` [1-fluoroanthraquinone, 1-Fluoroanthraquinone], in the experiment with Desulfovibrio gigas, the activity at 0.1 ppm is 105%, the activity at 0.5 ppm worked out at 23%, the activity at 2 ppm was 0.9% and the activity at 5 ppm is 0.9%. In addition, the “inhibition … (in words)” value in the experiment with Desulfovibrio gigas was “inhibitory effect”.

With `O=C(O)c1cc(O)c2c(c1)C(=O)c1cccc(O)c1C2=O` [Rhein, 9,10-Dihydro-4,5-dihydroxy-9,10-dioxo-2-anthracenecarboxylic acid], the “antibacterial activity (in words)” value with bacteria is “active component of leaf extracts of Cassia sp”. Also, in [2], the inhibition at 30 ppm is 48.6%.

As to `O=C1c2ccccc2C(=O)c2c1ccc(O)c2O` [1,2-Dihydroxyanthraquinone], the inhibition at 10 ppm in experiment [2] came to 68.9%. In addition, the “antibacterial activity (in words)” value in experiment [6] was “either inactive against these strains or required concentrations in excess of 100 to 1000 ppm for inhibition”.

Consider `O=C1c2ccccc2C(=O)c2c(Cl)cccc21` [1-Chloroanthraquinone], for which the “optical density reading at 660 nm” value is given as “.01” in the experiment with D. desulfuricans G100A [3] (setting [7]); “.11” in the experiment with D. desulfuricans G100A [3] (setting [8]); “.12” with D. desulfuricans G100A [3] (setting [9]); “.12” in the experiment on D. desulfuricans G100A [3] (setting [10]); “.27” in the experiment on D. desulfuricans G100A [3] (setting [11]); “.32” in the experiment with D. desulfuricans G100A [3] (setting [12]). The “optical density reading at 660 nm” value is reported as “.32” in the experiment with D. desulfuricans G100A [3] (setting [13]); “.30” in the experiment with D. desulfuricans G100A [3] (setting [14]); “.32” in the experiment on D. desulfuricans G100A [3] (setting [15]); “.26” in the experiment with D. desulfuricans G100A [3] (setting [16]); “.23” with D. desulfuricans G100A [3] (setting [17]). Also, the inhibition at 30 ppm in experiment [2] worked out at 20.8%. For the same molecule, the activity at 0.6 ppm in experiment [4] turned out to be 74%. Besides, the activity at 1.5 ppm in experiment [4] was found to be 50%. For the same molecule, the activity at 3 ppm in [4] was found to be 38%. Moreover, in the experiment on Desulfovibrio gigas, the activity at 0.1 ppm is 81%. Moreover, in the experiment on Desulfovibrio gigas, the activity at 0.5 ppm is 26%. In addition, the activity at 2 ppm with Desulfovibrio gigas is 1.6%. Besides, the activity at 5 ppm in the experiment on Desulfovibrio gigas is 1.3%. Besides, the “inhibition … (in words)” value with Desulfovibrio gigas is reported as “inhibitory properties”. Moreover, the “Optical Density @ 660 nm” value in the experiment on D. desulfuricans G100A [5] (setting [18]) came out at 0.02; in the experiment with D. desulfuricans G100A [5] (setting [19]), 0.02; in the experiment on D. desulfuricans G100A [5] (setting [20]), 0.08; with D. desulfuricans G100A [5] (setting [21]), 0.15; with D. desulfuricans G100A [5] (setting [22]), 0.20; with D. desulfuricans G100A [5] (setting [23]), 0.21. Moreover, the “Optical Density @ 660 nm” value is on record as 0.22 in the experiment with D. desulfuricans G100A [5] (setting [24]), 0.22 in the experiment with D. desulfuricans G100A [5] (setting [25]) and 0.24 in the experiment with D. desulfuricans G100A [5] (setting [26]).

`Nc1ccc(O)c2c1C(=O)c1ccccc1C2=O` [1-Amino-4-hydroxyanthraquinone]: the inhibition at 30 ppm in [2] was found to be 54.3%. Also, the “antibacterial activity (in words)” value in [6] was “either inactive against these strains or required concentrations in excess of 100 to 1000 ppm for inhibition”.

Regarding `N#CC(Br)(Br)C(N)=O` [2,2-Dibromo-3-nitrilopropionamide], the “effective / use concentration against sulfate-reducers” value in [1] is given as 3-12 ppm.

As to molybdate, the “effective / use concentration against sulfate-reducers” value in experiment [1] was 1000-4000 ppm.

With `O=C1c2ccccc2C(=O)c2cc(Br)ccc21` [2-bromoanthraquinone, 2-Bromoanthraquinone], in the experiment on Desulfovibrio gigas, the activity at 0.1 ppm was determined as 99%, the activity at 0.5 ppm was 33%, the activity at 2 ppm came out at 0.6% and the activity at 5 ppm was 0.6%. In addition, the “inhibition … (in words)” value with Desulfovibrio gigas is listed as “inhibitory effect”.
